According to paper PMC8006935, “Study of Combinatorial Drug Synergy of Novel Acridone Derivatives With Temozolomide Using in-silico and in-vitro Methods in the Treatment of Drug-Resistant Glioma” (Frontiers in Oncology, 2021):
Where two headings read alike, the source gives them in different places.

Key:
[1] = Sulforhodamine B assay, Vero control cells; type: cell-based; conditions: African green monkey, Vero cells (normal kidney epithelial cells), SRB, read-out: Vero cell Line CC50
Description: (§1) In order to test the growth inhibition potential of the TMZ and Acridone derivatives on Glioma, the U-87 (Uppsala 87) Glioma cell lines and T-98 (Temozolomide resistant) Glioma cell lines were treated with Temozolomide (TMZ) and Acridone derivatives AC2, AC7, and AC26. The African Green Monkey Kidney Vero cell lines were used as control for the study. The Vero cell lines were obtained from the National Center for Cell Sciences (NCCS), Pune, while the U-87 and T-98 cell lines were carried in the lab of Dr. GJ Peters, Cancer Center Amsterdam (CCA), VU University Medical Center, Amsterdam, Netherlands. The Mycoplasma testing was done by using the Universal Mycoplasma Detection Kit (ATCC® 30-1012K™) every 6 months. The Vero cell lines have been used as control as they are normal kidney epithelial cells and are non-cancerous in nature. The Vero cell lines have been routinely used for testing cytotoxicity of small molecules by various researchers ([22], [23]). Also, in our previous study, Vero cell lines have been used for testing safety and efficacy of Acridone derivatives for Lung, Cervical, and Breast Cancer studies ([13]).
(§2) Cell viability was found using the Sulforhodamine B (SRB) assay to measure the cellular protein content which provides better sensitivity in comparison to MTT assay ([24]). Moreover, as this method is dependent on the property of the SRB dye, it acts by binding to proteins under slightly acidic conditions and can be exposed to basic conditions for its extraction. The resulting amount of bound dye is then utilized as a proxy for cell mass ([25]). This cell mass can then be extrapolated to measure cell growth.
Glioma cells were cultured in Gibco (RPMI 1640) complemented with 10% fetal calf serum (Gibco). The cultures were then treated with trypsin-EDTA in order to detach/separate the cells from their culture flasks. The quickly proliferating cells were harvested, counted and plated at suitable concentrations in 96-well microplates. These microplates were subsequently incubated for 24 h. After incubation, drug compounds were dissolved in the culture media and placed in 96 well plates in triplicates, which were again incubated at 37°C under 5% CO2 for 72 h. 72 h later, the plates were removed and the cells were treated with cold Trichloroacetic acid (TCA) to fix the cultures and. […] Thereafter, absorbance of the solution was measured at 540 nm utilizing a microplate reader. Absorbance readings (triplicate values) recorded were used to calculate percentage growth inhibition due to the effect of drugs using the following equations.
% Cell growth = Absorbance sample/Absorbance of control or untreated × 100 […]
The IC50 was calculated based on the log graph sheet which was developed in-house at the CCA, VU University Medical Center. […]

[2] = design: method as in PMID 20925470; conditions: high doses; cited from earlier work
[3] = tested on: U-87 (Uppsala 87) Glioma cell lines; assay: Sulforhodamine B assay, U-87 drug sensitive Glioma cells; type: cell-based
Description: as §1, §2
(§3) Glioma cells were cultured in Gibco (RPMI 1640) complemented with 10% fetal calf serum (Gibco). The cultures were then treated with trypsin-EDTA in order to detach/separate the cells from their culture flasks. The quickly proliferating cells were harvested, counted and plated at suitable concentrations in 96-well microplates. These microplates were subsequently incubated for 24 h. After incubation, drug compounds were dissolved in the culture media and placed in 96 well plates in triplicates, which were again incubated at 37°C under 5% CO2 for 72 h. 72 h later, the plates were removed and the cells were treated with cold Trichloroacetic acid (TCA) to fix the cultures and. 0.4% of SRB dissolved in 1% acetic acid was then added to the culture in order to stain the cells. Next, the bound stain was dissolved in 150 μl of 10 mM unbuffered Tris base left on a gyrator shaker. Thereafter, absorbance of the solution was measured at 540 nm utilizing a microplate reader. Absorbance readings (triplicate values) recorded were used to calculate percentage growth inhibition due to the effect of drugs using the following equations.
(§4) % Cell growth = Absorbance sample/Absorbance of control or untreated × 100
(§5) % Growth inhibition = 100 - % cell growth
(§6) The IC50 was calculated based on the log graph sheet which was developed in-house at the CCA, VU University Medical Center.
(§7) Selectivity Index (SI) is a ratio that measures the window between cytotoxicity and anticancer activity of the drugs ([26]). […] Here, IC50 is the inhibition concentration for inhibiting 50% of cancer cells and CC50 is cytotoxic concentration causing death of 50% viable cells in the host.

[4] = tested on: Drug resistant cancer cells (CR), T-98; assay: Mathematical tumor growth model simulation and Bliss synergy, drug resistant cancer cells
[5] = design: method as in PMID 18971416; conditions: equation proposed by Levin-log permeability; cited from earlier work
Glioma = tested on: Glioma; design: method as in PMID 19046047; conditions: administered along with surgery and radiotherapy; cited from earlier work
[6] = tested on: T-98 (Temozolomide resistant) Glioma cell lines; assay: Sulforhodamine B assay, T-98 TMZ resistant Glioma cells; type: cell-based; conditions: for IC50: Glioma cell
Description: as §1, §2, §3, §4, §5, §6, §7

[7] = SI = CC50 of Vero cell line /IC50 of Cancer cell line after 72 h

Q: With `Cn1nnc2c(C(N)=O)ncn2c1=O` [TMZ, 3-Methyl-4-oxo-3,4-dihydroimidazo[5,1-d][1,2,3,5]tetrazine-8-carboxamide] as the compound, how does the CC50 at 72 h [1] read?
A: 482 µM

Q: What about the “dose leading to severe toxicity” value [2] of the same compound?
A: more than 250 μM

Q: And the “U-87/WT SI” value [3, 7]?
A: 20.66

Q: And the “Relative growth, experimental data for U-87 cell line” value (shortened to “Relative growth … for U-87 cell line”) ([3]; TMZ dose 0.5)?
A: 98.47%

Q: And the “Relative growth … for U-87 cell line” value ([3]; TMZ dose 1)?
A: 97.76%

Q: And the “Relative growth … for U-87 cell line” value ([3]; TMZ dose 2.5)?
A: 97%

Q: And the “Relative growth … for U-87 cell line” value ([3]; TMZ dose 5)?
A: 94.93%

Q: What about the “Relative growth … for U-87 cell line” value ([3]; TMZ dose 10) of the same compound?
A: 87.32%

Q: What about the “Relative growth … for U-87 cell line” value ([3]; TMZ dose 25) of the same compound?
A: 50.41%

Q: What about the “Relative growth … for U-87 cell line” value ([3]; TMZ dose 50) of the same compound?
A: 47.71%

Q: And the “Relative growth … for U-87 cell line” value ([3]; TMZ dose 100)?
A: 40.87%

Q: What about the IC50 ([3]; U87WT, 72 h, SRB, Mean ± Standard Deviations in Table 4, read-out: U-87/WT IC50) of the same compound?
A: 23.3 ± 7.57 µM

Q: And the “% fold change [(final-initial)/initial]*100” value ([4]; combination TMZ + AC2)?
A: 80.8%

Q: And the “Fold change = final IC50/initial IC50” value ([4]; combination TMZ + AC2)?
A: 0.19

Q: What about the “% fold change [(final-initial)/initial]*100” value ([4]; combination TMZ + AC7) of the same compound?
A: 75.68%

Q: What about the “Fold change = final IC50/initial IC50” value ([4]; combination TMZ + AC7) of the same compound?
A: 0.24

Q: And the “Fold change = final IC50/initial IC50” value ([4]; combination TMZ + AC26)?
A: 0.54

Q: What about the brain capillary permeability [5] of the same compound?
A: ~2.7 ×10⁻⁶ cm/s

Q: And the “increase of survival advantage” value (Glioma)?
A: 2.5 times

Q: And the IC50 ([6]; 72 h, SRB, Mean ± Standard Deviations in Table 4, read-out: T-98/TMZRES IC50)?
A: > 100 µM

Q: And the IC50 ([6]; drug administered individually, drug resistant cells, read-out: Initial IC50)?
A: 190 µM

Q: And the “T-98/TMZRES SI” value [6, 7]?
A: 2.53

Q: And the “Relative growth, experimental data for T-98 cell line” value (from here on “Relative growth … for T-98 cell line”) ([6]; TMZ dose 0.5)?
A: 98.26%

Q: And the “Relative growth … for T-98 cell line” value ([6]; TMZ dose 1)?
A: 97.74%

Q: And the “Relative growth … for T-98 cell line” value ([6]; TMZ dose 2.5)?
A: 96.65%

Q: And the “Relative growth … for T-98 cell line” value ([6]; TMZ dose 5)?
A: 95%

Q: What about the “Relative growth … for T-98 cell line” value ([6]; TMZ dose 10) of the same compound?
A: 87.43%

Q: What about the “Relative growth … for T-98 cell line” value ([6]; TMZ dose 25) of the same compound?
A: 61.98%

Q: What about the “Relative growth … for T-98 cell line” value ([6]; TMZ dose 50) of the same compound?
A: 52.77%

Q: And the “Relative growth … for T-98 cell line” value ([6]; TMZ dose 100)?
A: 50.87%
